{"source": "ChEMBL document CHEMBL1201862", "about": "“PubChem BioAssay data set” (2004)", "key": {"[1]": {"target": "Voltage-dependent T-type calcium channel subunit alpha-1H (Homo sapiens, UniProt O95180)", "sequence (O95180 whole entry)": "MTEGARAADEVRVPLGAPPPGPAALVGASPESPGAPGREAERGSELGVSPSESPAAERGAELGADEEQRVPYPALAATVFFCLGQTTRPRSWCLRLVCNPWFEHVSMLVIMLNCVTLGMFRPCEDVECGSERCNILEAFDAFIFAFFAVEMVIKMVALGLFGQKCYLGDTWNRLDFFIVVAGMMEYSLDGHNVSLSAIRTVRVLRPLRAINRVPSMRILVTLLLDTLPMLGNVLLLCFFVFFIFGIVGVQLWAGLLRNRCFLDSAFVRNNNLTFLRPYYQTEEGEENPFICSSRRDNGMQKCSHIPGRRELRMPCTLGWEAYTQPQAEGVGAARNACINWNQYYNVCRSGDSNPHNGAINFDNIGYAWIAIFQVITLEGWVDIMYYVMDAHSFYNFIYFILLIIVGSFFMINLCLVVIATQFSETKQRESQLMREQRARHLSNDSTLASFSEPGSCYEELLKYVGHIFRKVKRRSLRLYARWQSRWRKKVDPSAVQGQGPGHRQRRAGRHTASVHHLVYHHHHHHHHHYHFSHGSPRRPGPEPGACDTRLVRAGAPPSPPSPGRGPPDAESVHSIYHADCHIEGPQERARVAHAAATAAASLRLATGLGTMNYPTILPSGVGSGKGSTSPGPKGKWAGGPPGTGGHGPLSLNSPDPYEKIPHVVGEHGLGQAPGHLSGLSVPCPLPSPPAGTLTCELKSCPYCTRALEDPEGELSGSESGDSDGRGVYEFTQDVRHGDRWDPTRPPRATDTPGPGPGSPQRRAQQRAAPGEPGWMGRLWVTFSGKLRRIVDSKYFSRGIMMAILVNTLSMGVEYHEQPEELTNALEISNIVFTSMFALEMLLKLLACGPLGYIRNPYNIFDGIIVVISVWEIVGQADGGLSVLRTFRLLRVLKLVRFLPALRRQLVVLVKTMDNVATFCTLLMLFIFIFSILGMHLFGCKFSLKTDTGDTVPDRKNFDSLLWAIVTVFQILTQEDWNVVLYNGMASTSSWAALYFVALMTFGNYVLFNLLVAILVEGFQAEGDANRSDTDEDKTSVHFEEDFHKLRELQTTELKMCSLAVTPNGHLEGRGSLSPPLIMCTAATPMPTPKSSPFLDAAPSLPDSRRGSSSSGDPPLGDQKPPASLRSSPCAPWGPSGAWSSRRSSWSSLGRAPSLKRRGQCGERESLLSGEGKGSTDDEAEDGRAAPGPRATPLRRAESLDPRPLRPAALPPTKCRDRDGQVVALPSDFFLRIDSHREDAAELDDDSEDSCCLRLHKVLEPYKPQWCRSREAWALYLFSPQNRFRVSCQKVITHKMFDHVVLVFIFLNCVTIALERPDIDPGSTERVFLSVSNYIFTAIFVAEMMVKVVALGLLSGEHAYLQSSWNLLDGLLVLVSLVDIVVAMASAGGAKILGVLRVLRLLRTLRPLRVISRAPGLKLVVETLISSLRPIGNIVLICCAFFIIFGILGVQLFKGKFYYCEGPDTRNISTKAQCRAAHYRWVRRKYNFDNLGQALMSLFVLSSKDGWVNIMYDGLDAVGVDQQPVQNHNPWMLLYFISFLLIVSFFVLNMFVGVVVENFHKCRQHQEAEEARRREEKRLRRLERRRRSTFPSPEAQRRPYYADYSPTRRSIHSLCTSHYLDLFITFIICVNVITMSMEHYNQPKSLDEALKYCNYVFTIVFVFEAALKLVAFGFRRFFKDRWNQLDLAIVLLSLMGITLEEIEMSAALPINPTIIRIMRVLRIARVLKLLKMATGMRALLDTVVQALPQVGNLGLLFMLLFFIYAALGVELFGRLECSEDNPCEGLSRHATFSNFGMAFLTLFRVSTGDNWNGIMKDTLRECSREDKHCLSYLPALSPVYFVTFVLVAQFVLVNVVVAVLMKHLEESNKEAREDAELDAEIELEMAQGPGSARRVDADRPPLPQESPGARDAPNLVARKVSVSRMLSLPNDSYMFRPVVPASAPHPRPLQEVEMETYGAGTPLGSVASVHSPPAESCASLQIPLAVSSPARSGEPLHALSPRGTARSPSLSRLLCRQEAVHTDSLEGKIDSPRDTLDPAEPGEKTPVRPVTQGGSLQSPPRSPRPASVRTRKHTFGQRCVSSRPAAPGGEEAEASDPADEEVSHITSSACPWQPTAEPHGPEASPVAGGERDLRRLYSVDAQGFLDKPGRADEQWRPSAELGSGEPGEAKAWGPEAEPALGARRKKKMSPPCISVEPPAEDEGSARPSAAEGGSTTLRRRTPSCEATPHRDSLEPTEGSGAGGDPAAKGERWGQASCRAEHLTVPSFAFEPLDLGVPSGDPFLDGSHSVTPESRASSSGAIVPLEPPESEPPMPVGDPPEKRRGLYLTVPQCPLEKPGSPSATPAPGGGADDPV", "format": "functional"}, "[2]": {"target": "Eukaryotic translation initiation factor 4H (Homo sapiens, UniProt Q15056)", "test": "eIF4H binding inhibition – biochemical, uHTS, fluorescence polarization, translation initiation inhibitor project, primary screen (AID 2012)"}, "[3]": {"target": "Polyadenylate-binding protein 1 (Homo sapiens, UniProt P11940)", "sequence (P11940 whole entry)": "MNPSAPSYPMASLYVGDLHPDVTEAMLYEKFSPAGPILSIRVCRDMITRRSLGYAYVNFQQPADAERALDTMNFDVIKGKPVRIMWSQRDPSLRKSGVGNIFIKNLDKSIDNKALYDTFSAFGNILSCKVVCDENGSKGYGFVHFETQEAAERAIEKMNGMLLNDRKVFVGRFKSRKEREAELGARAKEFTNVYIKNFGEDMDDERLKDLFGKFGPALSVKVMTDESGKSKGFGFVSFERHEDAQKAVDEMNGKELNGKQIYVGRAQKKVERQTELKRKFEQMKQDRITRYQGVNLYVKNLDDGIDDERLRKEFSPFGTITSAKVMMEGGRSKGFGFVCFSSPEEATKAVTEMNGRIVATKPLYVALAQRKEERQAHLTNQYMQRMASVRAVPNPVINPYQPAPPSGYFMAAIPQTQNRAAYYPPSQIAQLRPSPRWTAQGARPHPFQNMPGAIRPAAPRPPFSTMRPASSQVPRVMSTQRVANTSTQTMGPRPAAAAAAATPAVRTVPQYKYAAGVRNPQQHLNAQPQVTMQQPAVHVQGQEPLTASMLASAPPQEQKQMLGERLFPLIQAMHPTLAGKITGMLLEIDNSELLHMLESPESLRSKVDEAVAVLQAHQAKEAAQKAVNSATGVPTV", "test": "blockers of PABP interaction with poly(A) – biochemical, fluorescence polarization, […] (AID 2014)"}, "[4]": {"target": "T1, Leucine aminopeptidase (Plasmodium falciparum 3D7, UniProt Q8IL11)", "T1 sequence (Q8IL11 whole entry)": "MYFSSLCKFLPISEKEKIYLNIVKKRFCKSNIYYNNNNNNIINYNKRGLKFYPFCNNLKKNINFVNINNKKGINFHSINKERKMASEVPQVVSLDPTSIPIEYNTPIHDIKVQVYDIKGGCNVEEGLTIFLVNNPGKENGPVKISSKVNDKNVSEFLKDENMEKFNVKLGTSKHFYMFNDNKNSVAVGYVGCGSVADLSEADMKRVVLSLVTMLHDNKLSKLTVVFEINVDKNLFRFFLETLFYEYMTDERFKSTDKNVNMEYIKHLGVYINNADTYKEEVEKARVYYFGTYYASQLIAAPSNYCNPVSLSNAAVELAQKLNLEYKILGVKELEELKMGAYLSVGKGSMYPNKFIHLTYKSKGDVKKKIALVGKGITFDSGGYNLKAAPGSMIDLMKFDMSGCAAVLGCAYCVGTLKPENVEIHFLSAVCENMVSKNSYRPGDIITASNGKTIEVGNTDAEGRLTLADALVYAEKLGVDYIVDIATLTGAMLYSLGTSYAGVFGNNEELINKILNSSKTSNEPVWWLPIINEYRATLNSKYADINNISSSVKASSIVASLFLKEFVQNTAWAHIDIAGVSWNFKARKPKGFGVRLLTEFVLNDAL", "test": "P. falciparum M17LAP inhibitors, primary screen, biochemical, fluorogenic H-Leu-NHMec substrate, 1536-well (AID 1619)", "format": "functional"}, "[5]": {"test": "M. tuberculosis H37Rv growth inhibitors, H37Rv strain (AID 1626)", "format": "functional"}, "[6]": {"test": "viability of uninfected HEp-2 cells – cell-based, HTS, cytotoxicity control for RSV inhibitor project, dose response (AID 2410)", "format": "functional", "conditions": "human respiratory syncytial virus"}, "[7]": {"test": "reduction of Shn3 3'UTR-driven luciferase in osteoblasts – cell-based, Clone20 osteoblasts, firefly luciferase, cherry-picked, dose response (AID 624132);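 note: firefly luciferase luminescence from reporter carrying the Shn3 3'UTR in osteoblasts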", "format": "functional"}, "[8]": {"test": "loss of viability in HepG2 cells – cell-based, CellTiter-Glo, cherry-picked, cytotoxicity control for Shn3 inhibitor project, dose response (AID 624134)", "format": "functional"}, "[9]": {"test": "non-specific 3'UTR reporter inhibition in Clone20-Shn3RL – cell-based, Renilla luciferase, cherry-picked, counter-screen for Shn3 inhibitor project, dose response (AID 624133)", "format": "functional"}, "[10]": {"target": "T2, Replicative DNA helicase DnaB (Mycobacterium tuberculosis, UniProt P9WMR3)", "T2 sequence (P9WMR3 whole entry)": "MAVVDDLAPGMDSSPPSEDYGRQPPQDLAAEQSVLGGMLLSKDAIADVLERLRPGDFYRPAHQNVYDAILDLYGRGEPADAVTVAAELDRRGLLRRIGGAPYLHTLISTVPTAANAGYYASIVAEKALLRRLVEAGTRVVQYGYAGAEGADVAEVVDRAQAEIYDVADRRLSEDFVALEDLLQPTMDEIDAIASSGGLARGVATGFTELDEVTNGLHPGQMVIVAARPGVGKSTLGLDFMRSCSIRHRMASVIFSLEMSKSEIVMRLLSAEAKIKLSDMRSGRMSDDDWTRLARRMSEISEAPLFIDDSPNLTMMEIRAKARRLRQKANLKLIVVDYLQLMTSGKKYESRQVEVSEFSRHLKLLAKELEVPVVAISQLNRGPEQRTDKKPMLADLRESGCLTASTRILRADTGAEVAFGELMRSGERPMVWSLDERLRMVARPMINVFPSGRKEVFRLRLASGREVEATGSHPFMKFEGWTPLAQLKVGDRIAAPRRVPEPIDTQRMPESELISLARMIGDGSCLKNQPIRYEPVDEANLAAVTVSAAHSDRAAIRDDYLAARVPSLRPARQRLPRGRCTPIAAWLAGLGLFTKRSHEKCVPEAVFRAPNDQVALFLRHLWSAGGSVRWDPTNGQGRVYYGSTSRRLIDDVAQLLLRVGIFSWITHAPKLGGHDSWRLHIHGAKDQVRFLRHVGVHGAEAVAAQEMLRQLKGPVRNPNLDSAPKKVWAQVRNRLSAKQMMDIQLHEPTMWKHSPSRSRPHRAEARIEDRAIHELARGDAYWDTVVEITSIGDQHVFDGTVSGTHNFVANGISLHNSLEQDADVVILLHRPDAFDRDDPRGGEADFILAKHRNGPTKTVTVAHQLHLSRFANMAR", "test": "DnaB intein splicing inhibitors, dose response, biochemical, cell-free fluorescence (AID 449749)", "format": "functional"}, "[11]": {"target": "T3, Protein RecA (Mycobacterium tuberculosis, UniProt P9WHJ3)", "T3 sequence (P9WHJ3 whole entry)": "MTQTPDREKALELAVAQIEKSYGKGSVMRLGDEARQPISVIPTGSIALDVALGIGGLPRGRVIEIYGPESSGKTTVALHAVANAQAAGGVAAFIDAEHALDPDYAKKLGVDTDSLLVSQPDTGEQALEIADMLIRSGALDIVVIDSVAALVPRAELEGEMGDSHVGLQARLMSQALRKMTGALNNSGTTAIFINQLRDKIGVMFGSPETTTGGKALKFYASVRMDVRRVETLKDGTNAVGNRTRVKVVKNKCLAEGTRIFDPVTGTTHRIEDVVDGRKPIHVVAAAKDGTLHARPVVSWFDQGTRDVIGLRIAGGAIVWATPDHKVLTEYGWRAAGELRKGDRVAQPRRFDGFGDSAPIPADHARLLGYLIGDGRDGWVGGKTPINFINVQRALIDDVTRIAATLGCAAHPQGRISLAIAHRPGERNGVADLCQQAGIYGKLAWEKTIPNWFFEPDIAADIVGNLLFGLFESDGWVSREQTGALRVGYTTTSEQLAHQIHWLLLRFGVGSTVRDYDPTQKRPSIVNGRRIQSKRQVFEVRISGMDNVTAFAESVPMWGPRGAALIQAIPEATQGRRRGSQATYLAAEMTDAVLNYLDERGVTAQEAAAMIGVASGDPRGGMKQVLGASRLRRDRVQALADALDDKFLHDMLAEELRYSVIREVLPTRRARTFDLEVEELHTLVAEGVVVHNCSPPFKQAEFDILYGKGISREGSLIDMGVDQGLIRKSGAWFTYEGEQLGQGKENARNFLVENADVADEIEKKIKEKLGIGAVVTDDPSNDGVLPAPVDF", "test": "Fluorescence Cell-Free Homogeneous Dose Retest to Identify Inhibitors of RecA-Intein Splicing Activity. [Related pubchem assays (depositor defined):AID2097, AID2223, AID489010, AID492950]", "format": "functional"}, "[12]": {"target": "Induced myeloid leukemia cell differentiation protein Mcl-1 (Homo sapiens, UniProt Q07820)", "sequence (Q07820 whole entry)": "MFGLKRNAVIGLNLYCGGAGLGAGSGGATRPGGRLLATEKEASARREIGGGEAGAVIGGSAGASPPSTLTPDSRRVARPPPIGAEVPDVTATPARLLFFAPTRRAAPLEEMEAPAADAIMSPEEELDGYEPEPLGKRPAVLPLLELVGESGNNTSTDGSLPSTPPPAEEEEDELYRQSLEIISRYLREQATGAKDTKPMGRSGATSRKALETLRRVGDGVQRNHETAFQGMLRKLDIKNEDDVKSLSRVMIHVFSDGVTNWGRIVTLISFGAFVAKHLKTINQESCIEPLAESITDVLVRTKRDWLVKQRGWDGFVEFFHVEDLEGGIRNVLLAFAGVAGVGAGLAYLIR", "format": "functional"}, "[13]": {"target": "T4, SUMO-activating enzyme (Homo sapiens, UniProt Q9UBT2)", "T4 sequence (Q9UBE0 whole entry)": "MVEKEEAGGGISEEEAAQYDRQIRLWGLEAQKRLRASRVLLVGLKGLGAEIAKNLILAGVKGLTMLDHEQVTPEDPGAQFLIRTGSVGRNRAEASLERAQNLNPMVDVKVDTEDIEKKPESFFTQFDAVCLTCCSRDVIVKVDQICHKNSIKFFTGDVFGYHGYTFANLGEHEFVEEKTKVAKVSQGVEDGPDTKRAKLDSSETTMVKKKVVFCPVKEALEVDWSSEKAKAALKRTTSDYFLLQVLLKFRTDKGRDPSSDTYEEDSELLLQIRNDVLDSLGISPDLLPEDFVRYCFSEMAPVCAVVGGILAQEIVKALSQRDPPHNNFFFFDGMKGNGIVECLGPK", "T4 sequence (Q9UBT2 whole entry)": "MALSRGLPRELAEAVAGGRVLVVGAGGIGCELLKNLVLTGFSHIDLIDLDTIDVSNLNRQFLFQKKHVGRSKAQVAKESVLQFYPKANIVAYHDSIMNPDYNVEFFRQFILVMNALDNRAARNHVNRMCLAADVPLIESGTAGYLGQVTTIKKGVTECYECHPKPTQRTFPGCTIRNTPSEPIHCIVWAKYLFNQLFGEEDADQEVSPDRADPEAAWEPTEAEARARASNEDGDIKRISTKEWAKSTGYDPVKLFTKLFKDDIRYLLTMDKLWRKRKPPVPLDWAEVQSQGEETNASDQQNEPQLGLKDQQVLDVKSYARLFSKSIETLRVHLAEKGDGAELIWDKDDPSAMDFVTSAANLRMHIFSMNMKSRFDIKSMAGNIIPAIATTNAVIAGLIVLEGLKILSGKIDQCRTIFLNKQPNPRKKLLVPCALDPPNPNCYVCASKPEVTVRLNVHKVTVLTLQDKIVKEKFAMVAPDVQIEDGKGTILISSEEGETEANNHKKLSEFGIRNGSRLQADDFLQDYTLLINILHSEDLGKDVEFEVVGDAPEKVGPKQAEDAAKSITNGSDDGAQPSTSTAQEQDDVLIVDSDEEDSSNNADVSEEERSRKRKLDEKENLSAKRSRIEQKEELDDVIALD", "test": "blockers of UBC9-mediated SUMO conjugation – biochemical, AlphaScreen, SUMOylation inhibitor project, confirmation (AID 2018)", "format": "functional"}, "[14]": {"target": "T4, SUMO-activating enzyme", "test": "blockers of SAE1/SAE2–UBC9 SUMO transfer – biochemical, HTRF, uHTS, primary screen (AID 2006)", "format": "protein-complex assay"}, "[15]": {"test": "THP-1 cell cytotoxicity, dose response, cytotoxicity control for non-replicating M. tuberculosis project (AID 489025)", "format": "functional"}, "[16]": {"test": "HepG2 cell cytotoxicity, dose response, cytotoxicity control for non-replicating M. tuberculosis project (AID 489018)", "format": "functional", "conditions": "Mycobacterium tuberculosis"}, "[17]": {"test": "cells", "format": "functional"}, "[18]": {"target": "Trypsin (Sus scrofa, UniProt P00761)", "sequence (P00761 whole entry)": "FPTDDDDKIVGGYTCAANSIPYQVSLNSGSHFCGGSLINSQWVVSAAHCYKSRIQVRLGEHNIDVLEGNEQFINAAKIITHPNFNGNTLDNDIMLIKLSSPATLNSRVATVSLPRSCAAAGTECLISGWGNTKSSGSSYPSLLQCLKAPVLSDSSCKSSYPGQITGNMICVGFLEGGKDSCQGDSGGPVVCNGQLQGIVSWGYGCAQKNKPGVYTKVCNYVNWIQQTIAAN", "test": "trypsin protease activity blockade – biochemical, quenched peptide fluorescence, cherry-pick, selectivity assay for Rce1 protease inhibitor project, dose response (AID 488789)"}}, "note": "Activity calls are given as the source filed them."}
{"smiles": "O=C(Nc1ccc(S(=O)(=O)N2CCCCCC2)cc1)c1ccc(Br)o1", "values": [{"measurement": "EC50", "setting": "[1]", "value": "7.13 µM (active)"}]}
{"smiles": "CCN1CCN(c2nc3ccccc3nc2C(C#N)C(=O)OCc2ccccc2)CC1", "note": "(centres undefined)", "values": [{"measurement": "IC50", "setting": "[2]", "value": "93.8 µM (active)"}, {"measurement": "IC50", "setting": "[3]", "value": "44.8 µM (active)"}]}
{"smiles": "CC1=CC(C)C2C(=O)N(CCC[N+](C)(C)C)C(=O)C2C1", "note": "(centres undefined)", "values": [{"measurement": "IC50", "setting": "[2]", "value": "97.8 µM (active)"}, {"measurement": "IC50", "setting": "[3]", "value": "6.94 µM (active)"}]}
{"smiles": "CCOC(=O)c1ccc(NC(=O)C2C3CCC(C3)C2C(=O)O)cc1", "note": "(centres undefined)", "values": [{"measurement": "IC50", "setting": "[4]", "value": "20 µM (active)"}, {"measurement": "IC50", "setting": "[5]", "value": "> 100 µM (active)"}]}
{"smiles": "Cc1cccc(NC(=O)CNc2cc(C)ccc2C)c1", "values": [{"measurement": "EC50", "setting": "[1]", "value": "15.2 µM (active)"}]}
{"smiles": "CC(C)(C)n1nnnc1C(c1ccc(C(F)(F)F)cc1)N(Cc1ccc(F)cc1)Cc1ccco1", "note": "(centres undefined)", "values": [{"measurement": "CC50", "setting": "[6]", "value": "10.3 µM (active)"}, {"measurement": "EC50", "setting": "[1]", "value": "2.84 µM (active)"}, {"measurement": "AC50", "setting": "[7]", "value": "10.1 µM (active)"}, {"measurement": "AC50", "setting": "[8]", "value": "40.3 µM (active)"}, {"measurement": "AC50", "setting": "[9]", "value": "18.8 µM (active)"}]}
{"smiles": "N#CC1=C(N)Oc2[nH]nc(-c3ccc(F)cc3)c2C1c1ccncc1", "note": "(centres undefined)", "values": [{"measurement": "IC50", "setting": "[4]", "value": "94.3 µM (active)"}, {"measurement": "AC50", "setting": "[10]", "value": "7.34 µM (active)"}, {"measurement": "EC50", "setting": "[11]", "value": "5.79 µM (active)"}]}
{"smiles": "COc1cc(C(=O)Nc2ccc3c(c2)C(=O)c2ccccc2C3=O)cc(OC)c1OC", "values": [{"measurement": "IC50", "setting": "[12]", "value": "2.77 µM (active)"}]}
{"smiles": "Cc1cc(/C=C2\\C(=N)N3N=C(c4ccco4)SC3=NC2=O)c(C)n1Cc1ccccc1", "values": [{"measurement": "IC50", "setting": "[13]", "value": "8.55 µM (active)"}, {"measurement": "IC50", "setting": "[14]", "value": "7.54 µM (active)"}]}
{"smiles": "CC/C(=N\\n1nnnc1Nc1ccccc1)c1ccccc1", "values": [{"measurement": "EC50", "setting": "[1]", "value": "5.34 µM (active)"}]}
{"smiles": "COc1ccc(C(=O)Oc2cccc3cccnc23)cc1S(=O)(=O)N1CCOCC1", "values": [{"measurement": "CC50", "setting": "[15]", "value": "26.6 µM (active)"}, {"measurement": "CC50", "setting": "[16]", "value": "18 µM (active)"}, {"measurement": "IC50", "setting": "[17]", "value": "6.24 µM (active)"}]}
{"smiles": "COc1c2ccoc2nc2c(OC)cccc12", "note": "[GAMMA-FAGARINE]", "values": [{"measurement": "AC50", "setting": "[18]", "value": "9.78 µM (active)"}]}
